Measurements reported in ChEMBL document CHEMBL1148297, “Synthesis and biological evaluation of analogues of 7-chloro-4,5-dihydro-4- oxo-8-(1,2,4-triazol-4-yl)-1,2,4-triazolo[1,5-a]quinoxaline-2-carboxylic acid (TQX-173) as novel selective AMPA receptor antagonists” (J Med Chem, 2004).
pIC50, pKi: −log10 of the molar value.

Experiments:
[1] = target: Glutamate receptor ionotropic, kainate; test: Inhibition concentration towards high-affinity ionotropic glutamate receptor kainate of rat cortical membranes by using [3H]KA as radioligand
[2] = target: Glutamate receptor ionotropic, AMPA (Rattus norvegicus, UniProt P19490+P19491+P19492+P19493)
Description: Binding affinity towards ionotropic glutamate receptor (high-affinity) of rat cortical synaptic membranes by using [3H]AMPA as radioligand

[3] = target: Glutamate receptor ionotropic, NMDA 1 (Rattus norvegicus, UniProt P35439); test: Binding affinity towards N-methyl-D-aspartate glutamate receptor 1 (high affinity) of rat cortical synaptic membranes by using [3H]Gly as radioligand
[4] = species on record: Mus musculus; test: Concentration necessary for 50% inhibition of depolarization induced by 5 uM NMDA in mouse cortical wedge preparation; type: functional; settings: for pIC50: Mus musculus, read-out: IC50
[5] = Ratio of IC50 of KA low-affinity receptor site to KA high-affinity receptor site
[6] = species on record: Rattus norvegicus; test: Concentration that inhibits 50% S-AMPA stimulated (50 uM) [3H]norepinephrine release from rat hippocampal synaptosomes; type: functional; settings: Hippocampus
[7] = species on record: Mus musculus; test: Concentration necessary for 50% inhibition of depolarization induced by 5 uM S-AMPA in mouse cortical wedge preparation; type: functional
[8] = target: Glutamate receptor ionotropic, NMDA 1 (Rattus norvegicus) (UniProt P35439); test: Percent inhibition of compound at 100 uM towards N-methyl-D-aspartate glutamate receptor 1 (high affinity) of rat cortical synaptic membranes by using [3H]-Gly as radioligand; type: cell membranes; settings: Membrane
[9] = target: Glutamate receptor ionotropic, kainate; test: Inhibition concentration towards low-affinity Ionotropic glutamate receptor kainate of rat cortical membranes by using [3H]-KA as radioligand
[10] = target: Glutamate receptor ionotropic, kainate (Rattus norvegicus) (UniProt P22756+Q01812+P42260+P42264+Q63273); test: Percent inhibition of compound at 100 uM towards high-affinity Ionotropic glutamate receptor kainate of rat cortical membranes by using [3H]KA as radioligand; type: cell membranes; settings: Membrane
[11] = species on record: Rattus norvegicus; test: Concentration giving 50% inhibition of stimulated [3H](+)-MK-801 binding in rat cortical membranes incubated with 10 uM glutamate and 0.1 uM glycine

What does the source list for Nc1cc2c(cc1C(F)(F)F)nc(O)c1nc(C(=O)O)nn12?
pIC50 [1]: 4.62; pKi [2]: 5.92; pKi [3]: 5.82

Which results are given for O=C(O)c1ccn(-c2cc3c(cc2C(F)(F)F)nc(O)c2nc(C(=O)O)nn23)c1?
pIC50 [4]: 4.22; Ratio [5]: 0.48; pIC50 [6]: 5.12; pIC50 [7]: 5.89

Which inhibition [8] does the source give for CCOC(=O)c1nc2c(O)nc3cc(Cl)c(-n4cnnc4)cc3n2n1 here?
Its inhibition is 15%.

With O=C(O)c1nc2c(=O)[nH]c3cc(C(F)(F)F)c([N+](=O)[O-])cc3n2n1 as the compound, how does the pIC50 [1] read?
The pIC50 was 4.37.

And the pKi [2]?
Its pKi is 5.63.

And the pKi [3]?
Its pKi is 5.36.

For NS(=O)(=O)c1cccc2c1c([N+](=O)[O-])cc1nc(O)c(O)nc12 [NBQX], which IC50 [4] is on record?
The IC50 was “Not Active”.

And the pIC50 [6]?
Its pIC50 is 5.40.

With CCOC(=O)c1nc2c(O)nc3cc(C(F)(F)F)c(-n4ccc(C=O)c4)cc3n2n1 as the compound, how does the pIC50 [1] read?
Its pIC50 is 4.51.

And the IC50 [4]?
Its IC50 is “Not Active”.

And the pKi [2]?
Its pKi is 6.43.

And the pIC50 [7]?
Its pIC50 is 5.11.

And the pKi [3]?
Its pKi is 4.15.

With CCOC(=O)c1nc2c(O)nc3cc(C(F)(F)F)c(-n4ccc(C(=O)O)c4)cc3n2n1 as the compound, how does the pIC50 [1] read?
Its pIC50 is 4.89.

What about the pKi [2] of the same compound?
The pKi was 6.46.

What about the inhibition [8] of the same compound?
The inhibition was 33%.

With CC(=O)Nc1cc2c(cc1[N+](=O)[O-])nc(O)c1nc(C(=O)O)nn12 as the compound, how does the pIC50 [1] read?
Its pIC50 is 4.65.

What about the pKi [2] of the same compound?
The pKi was 5.94.

What about the pKi [3] of the same compound?
The pKi was 4.20.

With CCOC(=O)c1nc2c(=O)[nH]c3cc(C(F)(F)F)c(N4C(=O)C=C(C=O)C4=O)cc3n2n1 as the compound, how does the pIC50 [1] read?
Its pIC50 is 4.38.

And the pKi [2]?
Its pKi is 4.89.

What about the pKi [3] of the same compound?
The pKi was 4.96.

With O=Cc1ccn(-c2cc3c(cc2C(F)(F)F)[nH]c(=O)c2nc(C(=O)O)nn23)c1 as the compound, how does the pIC50 [1] read?
The pIC50 was 5.25.

And the pKi [2]?
The pKi was 6.92.

What about the pKi [3] of the same compound?
Its pKi is 5.59.

And the pIC50 [9]?
The pIC50 was 6.00.

With CCOC(=O)c1nc2c(=O)[nH]c3cc([N+](=O)[O-])c(NC(C)=O)cc3n2n1 as the compound, how does the pIC50 [1] read?
Its pIC50 is 4.39.

What about the pKi [2] of the same compound?
Its pKi is 5.19.

What about the pKi [3] of the same compound?
The pKi was 4.07.

With O=C(O)c1nc2c(O)nc3cc(C(F)(F)F)c(-n4ccnc4)cc3n2n1 as the compound, how does the pIC50 [1] read?
Its pIC50 is 4.89.

What about the pKi [2] of the same compound?
The pKi was 6.92.

What about the pKi [3] of the same compound?
Its pKi is 4.47.

With CCOC(=O)c1nc2c(=O)[nH]c3cc([N+](=O)[O-])c(-n4cccc4)cc3n2n1 as the compound, how does the pIC50 [1] read?
The pIC50 was 4.39.

And the pKi [2]?
The pKi was 5.85.

What about the pKi [3] of the same compound?
Its pKi is 4.08.

Which results are given for CCOC(=O)c1nc2c(O)nc3cc([N+](=O)[O-])c(N)cc3n2n1?
pIC50 [1]: 4.16; pKi [2]: 5.92; pKi [3]: 5.43

Which inhibition [10] does the source give for CCOC(=O)c1nc2c(O)nc3cc(C(F)(F)F)c([N+](=O)[O-])cc3n2n1 here?
Its inhibition is 24%.

What does the source list for O=C(O)c1nc2c(=O)[nH]c3cc(Cl)c(-n4cnnc4)cc3n2n1 [TQX-173]?
pIC50 [1]: 4.95; pIC50 [6]: 4.55; pIC50 [11]: 4.17

With O=C(O)c1ccn(-c2cc3c(cc2C(F)(F)F)[nH]c(=O)c2nc(C(=O)O)nn23)c1 as the compound, how does the pIC50 [1] read?
Its pIC50 is 5.27.

What about the pKi [2] of the same compound?
The pKi was 7.43.

And the pKi [3]?
The pKi was 4.46.

And the pIC50 [9]?
Its pIC50 is 5.59.

What does the source list for CCOC(=O)c1nc2c(O)nc3cc(C(F)(F)F)c(-n4ccnc4)cc3n2n1?
pIC50 [1]: 4.15; pKi [2]: 6.46; pKi [3]: 4.27

With O=Cc1ccn(-c2cc3c(cc2C(F)(F)F)nc(O)c2nc(C(=O)O)nn23)c1 as the compound, how does the pIC50 [4] read?
The pIC50 was 4.30.

What about the Ratio [5] of the same compound?
Its Ratio is 0.18.

What about the pIC50 [6] of the same compound?
The pIC50 was 5.09.

And the pIC50 [7]?
Its pIC50 is 6.00.

What about the pIC50 [11] of the same compound?
Its pIC50 is 4.96.

Which inhibition [10] does the source give for CCOC(=O)c1nc2c(O)nc3cc(C(F)(F)F)c(-n4cccc4)cc3n2n1 here?
The inhibition was 5%.

And the pKi [2]?
Its pKi is 5.66.

What about the pKi [3] of the same compound?
The pKi was 4.12.

With O=C(O)c1ccn(-c2cc3c(cc2[N+](=O)[O-])nc(O)c2nc(C(=O)O)nn23)c1 as the compound, how does the pIC50 [1] read?
The pIC50 was 4.77.

What about the pKi [2] of the same compound?
The pKi was 7.72.

What about the inhibition [8] of the same compound?
Its inhibition is 7%.

With O=C(O)c1nc2c(=O)[nH]c3cc(C(F)(F)F)c(-n4cnnc4)cc3n2n1 as the compound, how does the pIC50 [1] read?
The pIC50 was 5.02.

What about the pKi [2] of the same compound?
Its pKi is 7.02.

What about the pKi [3] of the same compound?
Its pKi is 5.44.

What about the pIC50 [9] of the same compound?
The pIC50 was 5.74.

With O=C(O)c1nc2c(=O)[nH]c3cc([N+](=O)[O-])c(-n4cccc4)cc3n2n1 as the compound, how does the pIC50 [1] read?
The pIC50 was 5.29.

What about the pKi [2] of the same compound?
The pKi was 7.06.

What about the pKi [3] of the same compound?
Its pKi is 4.19.

And the pIC50 [9]?
The pIC50 was 5.77.

What does the source list for CCOC(=O)c1nc2c(O)nc3cc([N+](=O)[O-])c(-n4ccc(C(=O)O)c4)cc3n2n1?
pKi [2]: 7.17; inhibition [8]: 16%

With CCOC(=O)c1nc2c(O)nc3cc([N+](=O)[O-])c(-n4ccc(C=O)c4)cc3n2n1 as the compound, how does the pIC50 [1] read?
The pIC50 was 4.35.

What about the pKi [2] of the same compound?
The pKi was 6.19.

What about the inhibition [8] of the same compound?
The inhibition was 28%.

With CCOC(=O)c1nc2c(=O)[nH]c3cc(C(F)(F)F)c([N+](=O)[O-])cc3n2n1 as the compound, how does the pKi [2] read?
Its pKi is 5.05.

What about the pKi [3] of the same compound?
Its pKi is 4.21.

Which inhibition [10] does the source give for CCOC(=O)c1nc2c(O)nc3cc(C(F)(F)F)c(N)cc3n2n1 here?
Its inhibition is 45%.

With CCOC(=O)c1nc2c(O)nc3cc(C(F)(F)F)c(-n4cnnc4)cc3n2n1 as the compound, how does the pIC50 [1] read?
Its pIC50 is 4.04.

What about the pIC50 [4] of the same compound?
Its pIC50 is less than 3.82.

What about the pKi [2] of the same compound?
Its pKi is 6.70.

What about the pIC50 [7] of the same compound?
Its pIC50 is 4.92.

And the inhibition [8]?
Its inhibition is 42%.

Which results are given for Nc1cc2c(cc1[N+](=O)[O-])[nH]c(=O)c1nc(C(=O)O)nn12?
pIC50 [1]: 4.70; pKi [2]: 6.15; pKi [3]: 5.57

With CCOC(=O)c1nc2c(=O)[nH]c3cc(C(F)(F)F)c(N)cc3n2n1 as the compound, how does the pKi [2] read?
The pKi was 5.26.

And the pKi [3]?
Its pKi is 5.26.

With O=C(O)c1nc2c(O)nc3cc(C(F)(F)F)c(-n4cnnc4)cc3n2n1 as the compound, how does the pIC50 [4] read?
The pIC50 was 4.22.

What about the Ratio [5] of the same compound?
The Ratio was 0.19.

And the pIC50 [6]?
The pIC50 was 5.24.

What about the pIC50 [7] of the same compound?
The pIC50 was 6.10.

With O=C(O)c1nc2c(O)nc3cc([N+](=O)[O-])c(-n4cccc4)cc3n2n1 as the compound, how does the pIC50 [4] read?
The pIC50 was 4.30.

What about the Ratio [5] of the same compound?
Its Ratio is 0.33.

What about the pIC50 [6] of the same compound?
The pIC50 was 4.72.

And the pIC50 [7]?
The pIC50 was 6.00.

With O=C(O)c1cc(O)c2c(Cl)cc(Cl)cc2n1 as the compound, how does the pKi [3] read?
Its pKi is 7.05.

Which results are given for O=Cc1ccn(-c2cc3c(cc2[N+](=O)[O-])nc(O)c2nc(C(=O)O)nn23)c1?
pIC50 [1]: 5.09; pIC50 [4]: 4.28; pKi [2]: 6.74; Ratio [5]: 0.15; pIC50 [6]: 4.92; pIC50 [7]: 5.51; inhibition [8]: 43%; pIC50 [9]: 5.92

With O=C(O)c1nc2c(O)nc3cc(C(F)(F)F)c(-n4cccc4)cc3n2n1 as the compound, how does the pIC50 [1] read?
Its pIC50 is 4.74.

What about the pIC50 [4] of the same compound?
Its pIC50 is 4.10.

And the pKi [2]?
Its pKi is 6.55.

What about the pIC50 [6] of the same compound?
The pIC50 was 4.96.

What about the pIC50 [7] of the same compound?
Its pIC50 is 5.82.

What about the pKi [3] of the same compound?
Its pKi is 5.08.

What about the pIC50 [11] of the same compound?
Its pIC50 is 4.90.
